For assay [1], the target named is T1, human FAAH (Homo sapiens, UniProt O00519).
T1 construct: The full length FAAH was subcloned into the mammalian expression vector, pcDEF.neo, using XbaI and EcoRI restriction sites; expressed in transfected cells
T1 sequence (O00519 1-579): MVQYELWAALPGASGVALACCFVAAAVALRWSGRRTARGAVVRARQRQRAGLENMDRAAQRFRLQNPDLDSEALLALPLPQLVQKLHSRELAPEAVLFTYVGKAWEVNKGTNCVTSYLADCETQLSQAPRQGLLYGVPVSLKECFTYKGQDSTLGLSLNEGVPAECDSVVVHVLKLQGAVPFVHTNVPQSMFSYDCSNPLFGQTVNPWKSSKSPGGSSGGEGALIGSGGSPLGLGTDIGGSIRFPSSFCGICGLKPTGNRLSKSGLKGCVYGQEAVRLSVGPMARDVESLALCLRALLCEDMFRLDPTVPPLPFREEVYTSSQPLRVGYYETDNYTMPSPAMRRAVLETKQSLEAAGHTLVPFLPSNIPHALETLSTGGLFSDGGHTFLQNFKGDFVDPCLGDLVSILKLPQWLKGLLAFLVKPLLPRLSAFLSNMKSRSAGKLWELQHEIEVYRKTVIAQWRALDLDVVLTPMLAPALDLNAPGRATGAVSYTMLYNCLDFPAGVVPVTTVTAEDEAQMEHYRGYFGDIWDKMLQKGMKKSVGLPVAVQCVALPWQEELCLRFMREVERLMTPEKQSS
Briefly: FAAH whole cell assay (human Whole cell, FAAH_CHO, AAMCA substrate). The assay is classed as cell-based. Conditions: CHO cells expressing human FAAH, whole cell format; read-out: human cell_IC50. The text has this:
(§1) To assist in assay development stable cell lines for human, murine and rat full length FAAH were developed. Human FAAH cDNA (Accession No: NM_001441.1) was purchased from Origene (Rockville, Md.). The full length FAAH was subcloned into the mammalian expression vector, pcDEF.neo, using XbaI and EcoRI restriction sites and used for stable cell line generation.
Murine (accession number NM_010173) and Rat FAAH (accession number NM_024132) was amplified by reverse transcriptase polymerase chain reaction (RT-PCR) from brain cDNA (BD Biosciences, San Jose, Calif.) using primers 1 and 2 or primers 1 and 3 respectively (see Table). The resulting PCR product was ligated into pCR4 TOPO and DNA sequence confirmed. The full length murine FAAH was subcloned into the mammalian expression vector, pcDEFneo using either EcoRI (murine) or KpnI and EcoRI (rat) restriction sites. Chinese hamster ovary cells (CHO) were transfected following manufacturers protocol (AMAXA). Forty eight hours post transfection, cells were trypsinized and transferred to 96 well plates in Iscove's DMEM media supplemented with 2 mM Glutamine, 10% fetal calf serum, 1 mg/ml geneticin and HT Supplement (0.1 mM sodium hypoxanthine, 0.016 mM thymidine) in order to isolate single clones. Following selection in geneticin, individual clones were selected and FAAH activity was assessed using a whole cell fluorescent anandamide assay, modified from Ramarao et al (2005). Following removal of tissue culture media cells were dislodged following addition of Cellstripper (Mediatech, Inc. Manassas, Va.) and transferred to 96 well black clear bottom assay plate, centrifuged at 1,000 rpm for 3 mins and media removed and replaced with assay buffer (50 mM Tris pH8.0, 1 mM EDTA, 0.1% fatty acid free BSA). The reaction was initiated by addition of fluorescent substrate, AMC Arachidonoyl Amide (Cayman Chemical, Ann Arbor, Mich.) to 1 μM and reaction allowed to proceed for 2 hours at room temperature. Release of fluorescence was monitored in a CytoFluor Multiplate Reader. Cells expressing the highest amount of FAAH activity were selected for study with FAAH inhibitors.
(§2) Assays are performed on either cell lysate or microsome fractions prepared as described or in whole cell format employing either the fluorescent substrate AAMCA (Cayman chemical, Ann Arbor, Mich.) or ^3H-anandamide ([ETHANOLAMINE-1-3H] American Radiolabeled Chemicals; 1 mCi/ml). The cell lysate or microsome assay is performed in black PerkinElmer OptiPlates-384F by adding FAAH_CHO (whole cell (shown as human Whole cell or Human WC), cell lysate (shown as human lysate of human LY) or microsome) in assay buffer (50 mM Phosphate, pH 8.0, 1 mM EDTA, 200 mM KCl, 0.2% glycerol, 0.1% fatty acid free BSA) to each well, followed by either DMSO or compound and allowed to incubate at 22-25° C. for fifteen minutes. AAMCA substrate was used to achieve a final concentration of 1 μM and reaction allowed to proceed at room temperature for 1-3 hours. Fluorescent release as a measure of FAAH activity was monitored by reading the plate in an Envision plate Reader (Ex: 360/40 nM; Em: 460/40 nM). Whole cell assay is conducted with cells harvested after rinsing tissue culture flasks three times with Ca^++Mg^++ free PBS, incubating for 10 min in Enzyme free dissociation media and centrifuging for 5 minutes at 1,000 rpm in table top centrifuge. Cells are resuspended in assay buffer at desired cell number in (4×10^4 cells/assay in 96-well format; 1×10^4 cells/assay in 384-well format) and assayed as described.

Assay [2] addresses T1, human FAAH. Briefly: FAAH cell lysate assay (human lysate, FAAH_CHO, AAMCA substrate). The assay is classed as biochemical. The following applies: lysate of CHO cells expressing human FAAH; read-out: human lysate_IC50.
Description: as §1
CHO cells expressing FAAH were used to prepare either crude cell lysate or microsome fractions. To harvest cells, tissue culture media was decanted, the monolayer washed three times with Ca^++Mg^++ free PBS and cells recovered after 15 mm in enzyme free dissociation media (Millipore Corp, Billerica, Mass.). Cells were collected by centrifuging at 2000 rpm for 15 min. and the cell pellet re-suspended with 50 mM HEPES (pH 7.4) containing 1 mM EDTA and the protease inhibitors aprotinin (1 mg/ml) and leupeptin (100 μM). The suspension was sonicated at 4° C. and the cell lysate recovered after centrifuging at 12,000×g (14,600 rpm, SS34 rotor) for 20 min at 4° C. to form a crude pellet of cell debris, nuclei, peroxisomes, lysosomes, and mitochondria; the supernatant or cell lysate was used for FAAH enzyme assay. In some cases, microsomes fractions enriched in FAAH were prepared by centrifuging the cell lysate further at 27,000 rpm (100,000×g) in SW28 rotor for 50 minutes at 4° C. The pellet containing FAAH-enriched microsomes was re-suspend in 50 mM HEPES, (pH 7.4) 1 mM EDTA, and any remaining DNA sheared by passage of material through a 23 gauge needle and aliquots of enzyme were store at −80° C. prior to use.
(American Radiolabeled Chemicals; 1 mCi/ml) with FAAH (Life Sciences (1995), 56, 1999-2005 and Journal of Pharmacology and Experimented Therapeutics (1997), 283, 729-734), Analytical. Biochemistry (2003), 318:270-5. In addition, routine assays were performed monitoring hydrolysis of araehidonyl-7-amino-4-methylcoumarin amide (AAMCA) by following increase in fluorescence upon release of 7-amino 4-methyl coumarin (λEX=355 nm, (λEM=460 nm). Analytical. Biochemistry (2005). 343:143-51
as §2

The text below walks through data of patent US9073879B2, “Oxazole derivatives useful as modulators of FAAH” (MERCK SHARP & DOHME CORP., priority 2010, dated 2015).

`Fc1ccc(-c2nc(COc3ccc4[nH]ccc4c3)c(Sc3ccc(Cl)cn3)o2)cc1` [Example B2.10, 5-({5-[(5-chloropyridin-2-yl)sulfanyl]-2-(4-fluorophenyl)-1,3-oxazol-4-yl}methoxy)-1H-indole]: the IC50 on human FAAH [1] came out at 0.298 µM; on human FAAH [2], 0.056 µM.

For `COC(=O)c1ccc(OCc2nc(-c3ccc(F)cc3)oc2Sc2ccc(Cl)cn2)cc1` [Example B2.11, Methyl-4-({5-[(5-chloropyridin-2-yl)sulfanyl]-2-(4-fluorophenyl)-1,3-oxazol-4-yl}methoxy)benzoate], the figures for the IC50 on human FAAH [1] and at human FAAH [2] were 0.013 µM and 0.002 µM, respectively.

As for `O=C(O)c1ccc(OCc2nc(-c3ccc(F)cc3)oc2Sc2ccc(Cl)cn2)cc1` [Example B2.11.1, 4-({5-[(5-chloropyridin-2-yl)sulfanyl]-2-(4-fluorophenyl)-1,3-oxazol-4-yl}methoxy)benzoic acid], the IC50 at human FAAH [1] stood at 0.253 µM; on human FAAH [2] it was 0.059 µM.

On to `CCNC(=O)c1ccc(OCc2nc(-c3ccc(F)cc3)oc2Sc2ccc(Cl)cn2)cc1` [Example B2.11.2, 4-({5-[(5-chloropyridin-2-yl)sulfanyl]-2-(4-fluorophenyl)-1,3-oxazol-4-yl}methoxy)-N-ethylbenzamide], for which the IC50 was 0.014 µM at human FAAH [1] and 0.003 µM on human FAAH [2].

For `CN(C)C(=O)c1ccc(OCc2nc(-c3ccc(F)cc3)oc2Sc2ccc(Cl)cn2)cc1` [Example B2.11.3, 4-({5-[(5-chloropyridin-2-yl)sulfanyl]-2-(4-fluorophenyl)-1,3-oxazol-4-yl}methoxy)-N,N-dimethylbenzamide], the results for the IC50 at human FAAH [1] and at human FAAH [2] were 1.45 µM and 0.149 µM, respectively.

Take `CNC(=O)c1ccc(OCc2nc(-c3ccc(F)cc3)oc2Sc2ccc(Cl)cn2)cc1` [Example B2.11.4, 4-({5-[(5-chloropyridin-2-yl)sulfanyl]-2-(4-fluorophenyl)-1,3-oxazol-4-yl}methoxy)-N-methylbenzamide]: the IC50 on human FAAH [1] was determined as 0.005 µM; on human FAAH [2] it was 0.003 µM.

As to `O=C(NCC(F)(F)F)c1ccc(OCc2nc(-c3ccc(F)cc3)oc2Sc2ccc(Cl)cn2)cc1` [Example B2.11.5, 4-({5-[(5-chloropyridin-2-yl)sulfanyl]-2-(4-fluorophenyl)-1,3-oxazol-4-yl}methoxy)-N-(2,2,2-trifluoroethyl)benzamide], the IC50 at human FAAH [1] is 0.022 µM; on human FAAH [2], 0.005 µM.

Take `Cn1ncnc1COCc1nc(-c2ccc(F)cc2)oc1Sc1ccc(Cl)cn1` [Example B2.12, 5-chloro-2-{[2-(4-fluorophenyl)-4-{[(1-methyl-1H-1,2,4-triazol-5-yl)methoxy]methyl}-1,3-oxazol-5-yl]sulfanyl}pyridine]: the IC50 on human FAAH [1] is 2.15 µM; at human FAAH [2], 0.807 µM.

For the compound `Fc1ccc(-c2nc(COC3CCNCC3)c(Sc3ccc(Cl)cn3)o2)cc1` [Example B2.14, 5-chloro-2-({2-(4-fluorophenyl)-4-[(piperidin-4-yloxy)methyl]-1,3-oxazol-5-yl}sulfanyl)pyridine], the IC50 at human FAAH [1] stood at 3.36 µM; on human FAAH [2] it was 0.902 µM.

On to `Fc1ccc(-c2nc(COC3CCOCC3)c(Sc3ccc(Cl)cn3)o2)cc1` [Example B2.15, 5-chloro-2-({2-(4-fluorophenyl)-4-[(tetrahydro-2H-pyran-4-yloxy)methyl]-1,3-oxazol-5-yl}sulfanyl)pyridine], for which the IC50 at human FAAH [1] was found to be 0.343 µM; at human FAAH [2], 0.088 µM.

As for `CCNC(=O)c1ccc(OCc2nc(-c3ccc(F)cc3)oc2Sc2ccc(Cl)cn2)nc1` [Example B2.16, 6-({5-[(5-chloropyridin-2-yl)sulfanyl]-2-(4-fluorophenyl)-1,3-oxazol-4-yl}methoxy)-N-ethylpyridine-3-carboxamide], the results for the IC50 on human FAAH [1] and on human FAAH [2] were 0.01 µM and 0.004 µM, respectively.

For `COC(=O)c1ccc(NCc2nc(-c3ccc(F)cc3)oc2Sc2ccc(Cl)cn2)cc1` [Example B5.1, methyl 4-[({5-[(5-chloropyridin-2-yl)sulfanyl]-2-(4-fluorophenyl)-1,3-oxazol-4-yl}methyl)amino]benzoate], the IC50 is 0.018 µM at human FAAH [1] and 0.003 µM on human FAAH [2].

As to `CCNC(=O)c1ccc(NCc2nc(-c3ccc(F)cc3)oc2Sc2ccc(Cl)cn2)cc1` [Example B5.4, 4-[({5-[(5-chloropyridin-2-yl)sulfanyl]-2-(4-fluorophenyl)-1,3-oxazol-4-yl}methyl)amino]-N-ethylbenzamide], the figures for the IC50 at human FAAH [1] and at human FAAH [2] were 0.008 µM and 0.003 µM, respectively.

Consider `Fc1ccc(-c2nc(CNc3ccc4[nH]ncc4c3)c(Sc3ccc(Cl)cn3)o2)cc1` [Example B5.6, N-({5-[(5-chloropyridin-2-yl)sulfanyl]-2-(4-fluorophenyl)-1,3-oxazol-4-yl}methyl)-1H-indazol-5-amine], for which the IC50 on human FAAH [1] was determined as 0.038 µM; at human FAAH [2], 0.022 µM.

Consider `CCOC(=O)c1ccc(NCc2nc(-c3ccc(F)cc3)oc2Sc2ccc(Cl)cn2)nc1` [Example B5.7, ethyl 6-[({5-[(5-chloropyridin-2-yl)sulfanyl]-2-(4-fluorophenyl)-1,3-oxazol-4-yl}methyl)amino]pyridine-3-carboxylate], for which the IC50 came to 0.024 µM at human FAAH [1] and 0.006 µM on human FAAH [2].

As for `CCNC(=O)c1ccc(NCc2nc(-c3ccc(F)cc3)oc2Sc2ccc(Cl)cn2)nc1` [Example B5.8, 6-[({5-[(5-chloropyridin-2-yl)sulfanyl]-2-(4-fluorophenyl)-1,3-oxazol-4-yl}methyl)amino]-N-ethylpyridine-3-carboxamide], the results for the IC50 at human FAAH [1] and on human FAAH [2] were 0.042 µM and 0.017 µM, respectively.
